Data: publication PMC6171423, “Benzofuran–appended 4-aminoquinazoline hybrids as epidermal growth factor receptor tyrosine kinase inhibitors: synthesis, biological evaluation and molecular docking studies” (Journal of Enzyme Inhibition and Medicinal Chemistry, 2018)
Where two headings read alike, the source gives them in different places.

What was measured:
human EGFR (EGFR-TK) = human EGFR (EGFR-TK) (Homo sapiens, UniProt P00533); test: Inhibition of EGFR-TK (ELISA)
[1] = system: cervical cancer (HeLa) cells; test: cells; conditions: Homo sapiens, 48 h, read-out: Cancer cells LC50 HeLa
Experimental: (§5) The cytotoxic activities of the compounds were screened against the C3A/HepG2 human liver cells, human colorectal tumor (Caco-2) cells, the human lung carcinoma (A549) and the cervical cancer (HeLa) cells. The lethal concentration was determined using the 3–(4,5-dimethylthiazol)-2,5-diphenyl tetrazolium bromide (MTT) assay previously developed by Mosmann[20]. The cells were maintained in Dubelsco minimal essential medium (DMEM, Highveld Biological, South Africa) supplemented with 10% fetal calf serum (Adcock-Ingram, Midrand, South Africa) and sodium pyruvate for C3A liver cells. Cell suspensions were prepared from confluent monolayer cultures and plated at a density of 0.1 × 10^6 cells into each well of 96-well microtitre plates. For cell attachment, plates were incubated for 24 h at 37 °C in a 5% CO2 incubator prior to the exposure. The compounds were dissolved in DMSO (5 mg/mL) and appropriate dilutions were prepared, added to the wells and incubated for 48 h. Doxorubicin hydrochloride (Pfizer Laboratories, Sandton, South Africa) was used as a positive control while DMSO was the negative control. After incubation for 48 h, the wells were rinsed with 150 µL of phosphate buffered saline PBS (Sigma-Aldrich, GmBH, Schnelldorf, Germany) and 200 µL of fresh medium was dispensed into the wells. MTT was dissolved in PBS (30 µL) then added to each well and the contents were incubated for 4 h at 37 °C. The medium was removed and MTT formazan crystals were dissolved in 50 µL DMSO. The amount of MTT reduction was measured immediately by detecting the absorbance using a BioTek microplate reader (BioTek Synergy, Analytical and Diagnostic Products, Johannesburg, South Africa) at a wavelength of 570 nm. Each dilution of the test sample was assayed in quadruplicate and the experiments were repeated three times. The percentage of cell viability and the LC50 values for each compound tested were calculated as described before[10].

[2] = system: hepatocellular carcinoma (C3A; HepG2/C3A) cells; test: cells; conditions: Homo sapiens, 48 h
Experimental: as §5

[3] = system: human lung cancer (A549) cells; test: cells; conditions: A549, 48 h, read-out: Cancer cells LC50 A549
Experimental: as §5

[4] = system: colorectal adenocarcinoma (Caco-2) cells; test: cells; conditions: Homo sapiens, Caco-2, 48 h, read-out: Cancer cells LC50 Caco-2
Experimental: as §5

C3A cells = test: Annexin V/PI apoptosis assay by flow cytometry, C3A; assay type: cell-based, human; conditions: 5 and 12.5 µM, 24 h
Experimental: (§1) Apoptotic cells were quantified using flow cytometry. The C3A or Caco-2 cells were cultured in 24 well plates and each was then treated with compound 10d or 10j at concentrations 5, 12.5 and 25 µM against doxorubicin hydrochloride (0.20 µM) as a reference standard, respectively. After the cells were incubated for 24 h, both treated and untreated cells were harvested, washed two times with ice PBS and then adjusted at a density of 1 x 10^6 cells/sample. Cells were harvested and transferred into plastic flow tubes (BD Biosciences, South Africa). The cells were, in turn, stained with Annexin-V-FUOS staining kit (Roche, Mannheim, Germany) according to the manufacturer’s instructions. The cells were analyzed using Becton, Dickinson and Company FACS Accuri flow cytometer.
(§2) We selected compounds 10d and 10j to evaluate whether they induce apoptosis in the C3A and Caco-2 cell lines against doxorubicin hydrochloride as a reference standard, respectively. The population of apoptotic cells was determined by means of Annexin-V and propium iodide (PI) double staining by flow cytometry, which is a useful tool for evaluation of molecular and morphological events that take place during cell death and cell proliferation. […]

[5] = system: Human Caspase-3 (Asp175) activity in C3A cells; test: Caspase-3 colorimetric assay, C3A; assay type: cell-based; conditions: 24 h, Gefitinib as reference
Experimental: (§3) Caspase-3 activity was detected by means of Caspase-3 Colorimetric Assay Kit (Abcam, Cambridge, MA, USA). The cells were cultured in 24 well plates and treated for 24 h. The cells were then washed with PBS buffer and lysed on ice. The experiments were carried out according to the manufacturer’s instructions. Optical density was measured at absorbance of 450 nm using the BioTek microplate reader. The concentration of active Caspase-3 (Asp 175) were measured in duplicates and interpolated from the active caspase-3 (Asp 175) standard curve and corrected for sample dilution.
(§4) A major biochemical feature of apoptosis is the activation of caspases (caspase-2, -3, -6, -7, -8, -9, and -10), which play a central role in the morphological changes associated with apoptosis. Activation of caspase-3, for example, is critically important for the induction of apoptotic pathways. Consequently, we evaluated compounds 10d and 10j for potential to induce caspase-3 activation in C3A and Caco-2 cells using Gefitinib as a reference standard (Figure 4).

[6] = system: Human Caspase-3 (Asp175) activity in Caco-2 cells; test: Caspase-3 colorimetric assay, Caco-2; assay type: cell-based; conditions: 24 h, Gefitinib as reference
Experimental: as §3, §4

Caco-2 cells = test: Annexin V/PI apoptosis assay by flow cytometry, Caco-2; assay type: cell-based, human; conditions: 5 and 12.5 µM, 24 h
Experimental: as §1, §2

[7] = system: hepatocellular carcinoma (C3A; HepG2/C3A) cells; conditions: human, 48 h
Experimental: as §5

[8] = read-out: Cancer cells LC50 C3A
[9] = read-out: IC50 against EGFR-TK, ELISA, purified EGFR

Sequence of human EGFR (EGFR-TK) (P00533 25-1210): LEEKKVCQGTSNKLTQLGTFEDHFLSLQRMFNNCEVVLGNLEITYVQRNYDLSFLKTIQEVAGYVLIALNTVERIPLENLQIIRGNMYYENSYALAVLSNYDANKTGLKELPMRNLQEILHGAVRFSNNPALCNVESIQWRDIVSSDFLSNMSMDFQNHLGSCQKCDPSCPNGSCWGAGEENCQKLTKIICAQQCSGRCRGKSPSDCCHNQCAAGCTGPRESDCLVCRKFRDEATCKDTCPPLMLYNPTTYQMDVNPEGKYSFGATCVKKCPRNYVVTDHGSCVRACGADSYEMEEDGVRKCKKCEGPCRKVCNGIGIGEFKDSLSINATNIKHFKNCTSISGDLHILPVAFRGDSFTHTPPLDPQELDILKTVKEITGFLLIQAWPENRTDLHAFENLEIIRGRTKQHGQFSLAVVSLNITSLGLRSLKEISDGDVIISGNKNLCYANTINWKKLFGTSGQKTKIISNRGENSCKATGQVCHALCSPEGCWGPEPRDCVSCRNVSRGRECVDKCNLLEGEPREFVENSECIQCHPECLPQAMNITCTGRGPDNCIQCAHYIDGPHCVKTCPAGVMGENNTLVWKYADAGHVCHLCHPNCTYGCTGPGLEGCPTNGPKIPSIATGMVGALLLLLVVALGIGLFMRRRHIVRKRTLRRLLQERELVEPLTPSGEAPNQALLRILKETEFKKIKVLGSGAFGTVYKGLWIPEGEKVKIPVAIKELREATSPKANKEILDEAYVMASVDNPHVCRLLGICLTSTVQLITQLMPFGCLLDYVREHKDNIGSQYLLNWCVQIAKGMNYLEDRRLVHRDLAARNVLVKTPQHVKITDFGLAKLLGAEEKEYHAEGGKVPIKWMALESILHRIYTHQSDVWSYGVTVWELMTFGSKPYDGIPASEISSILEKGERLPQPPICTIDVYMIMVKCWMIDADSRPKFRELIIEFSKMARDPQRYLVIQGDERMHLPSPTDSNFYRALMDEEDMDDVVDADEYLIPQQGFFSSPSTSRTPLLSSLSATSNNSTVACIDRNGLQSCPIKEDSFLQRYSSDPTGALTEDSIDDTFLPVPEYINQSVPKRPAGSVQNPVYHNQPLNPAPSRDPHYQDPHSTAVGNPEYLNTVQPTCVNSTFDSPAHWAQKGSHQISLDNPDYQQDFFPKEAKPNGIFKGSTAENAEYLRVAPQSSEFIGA

| SMILES | IC50 (human EGFR (EGFR-TK)) | CC50 [1] | CC50 [2, 8] | CC50 [3] | CC50 [4] | IC50 (human EGFR (EGFR-TK); [9]) | induction of apoptosis (C3A cells) | caspase-3 activation [5] | caspase-3 activation [6] | induction of apoptosis (Caco-2 cells) | CC50 ([2]; read-out: Cancer cells LC50 C3A, MTT, 48 h, C3A) | CC50 [7] |
| --- | --- | --- | --- | --- | --- | --- | --- | --- | --- | --- | --- | --- |
| Fc1ccc(-c2nc(Nc3cc(Br)cc4cc(-c5ccccc5)oc34)c3cc(Br)ccc3n2)cc1 [Compound 10a, 6-Bromo-N-(5-bromo-2-phenylbenzofuran-7-yl)-2–(4-fluorophenyl)quinazolin-4-amine] | 0.1113 ± 0.00042 µM | 17.6 ± 0.39 µM | 81 ± 0.03 µM | 64.7 ± 0.11 µM | 96.3 ± 0.1 µM |  |  |  |  |  |  |  |
| Fc1ccc(-c2nc(Nc3cc(Br)cc4cc(-c5cccc(F)c5)oc34)c3cc(Br)ccc3n2)cc1 [Compound 10b, 6-Bromo-N-(5-bromo-2–(3-fluorophenyl)benzofuran-7-yl)-2–(4-fluorophenyl)quinazolin-4-amine] |  | 47 ± 0.38 µM | 90.1 ± 0.02 µM | 54.3 ± 0.19 µM | 83.9 ± 0.07 µM | 0.1225 ± 0.0005 µM |  |  |  |  |  |  |
| Fc1ccc(-c2nc(Nc3cc(Br)cc4cc(-c5ccc(F)cc5)oc34)c3cc(Br)ccc3n2)cc1 [Compound 10c, 6-Bromo-N-(5-bromo-2–(4-fluorophenyl)benzofuran-7-yl)-2–(4-fluorophenyl)quinazolin-4-amine] | 0.0522 ± 0.00018 µM | 11.4 ± 0.56 µM | > 100 µM | 52.6 ± 0.2 µM | 98.8 ± 0.02 µM |  |  |  |  |  |  |  |
| Fc1ccc(-c2nc(Nc3cc(Br)cc4cc(-c5cccc(Cl)c5)oc34)c3cc(Br)ccc3n2)cc1 [Compound 10d, 6-Bromo-N-(5-bromo-2–(3-chlorophenyl)benzofuran-7-yl)-2–(4-fluorophenyl)quinazolin-4-amine] |  | 22.1 ± 1.1 µM | 9 ± 0.01 µM | 65.1 ± 0.12 µM | 47.7 ± 0.01 µM | 0.0293 ± 2e-05 µM | induced apoptosis | induce apoptosis through activation of caspase-3 |  |  |  |  |
| Fc1ccc(-c2nc(Nc3cc(Br)cc4cc(-c5ccc(OC(F)(F)F)cc5)oc34)c3cc(Br)ccc3n2)cc1 [Compound 10e, 6-Bromo-N-(5-bromo-2–(4-(trifluoromethoxy)phenyl)benzofuran-7-yl)-2–(4-fluorophenyl) quinazolin-4-amine] |  | 23.4 ± 0.49 µM | > 100 µM | 97.6 ± 0.07 µM | 65.2 ± 0.1 µM | 0.0311 ± 0.00012 µM |  |  |  |  |  |  |
| Clc1ccc(-c2nc(Nc3cc(Br)cc4cc(-c5ccccc5)oc34)c3cc(Br)ccc3n2)cc1 [Compound 10f, 6-Bromo-N-(5-bromo-2-phenylbenzofuran-7-yl)-2–(4-chlorophenyl)quinazolin-4-amine] |  | 15.4 ± 0.45 µM | 73.9 ± 0.02 µM | 48 ± 0.1 µM | 75 ± 0.02 µM |  |  |  |  |  |  |  |
| Fc1cccc(-c2cc3cc(Br)cc(Nc4nc(-c5ccc(Cl)cc5)nc5ccc(Br)cc45)c3o2)c1 [Compound 10g, 6-Bromo-N-(5-bromo-2–(3-fluorophenyl)benzofuran-7-yl)-2–(4-chlorophenyl)quinazolin-4-amine] |  | 53.5 ± 4.46 µM | 79.1 ± 0.01 µM | 78.5 ± 0.15 µM | 94.4 ± 0.02 µM | 0.1329 ± 0.00055 µM |  |  |  |  |  |  |
| Fc1ccc(-c2cc3cc(Br)cc(Nc4nc(-c5ccc(Cl)cc5)nc5ccc(Br)cc45)c3o2)cc1 [Compound 10h, 6-Bromo-N-(5-bromo-2–(4-fluorophenyl)benzofuran-7-yl)-2–(4-chlorophenyl)quinazolin-4-amine] |  | 28.6 ± 1.12 µM | > 100 µM | 74.1 ± 0.21 µM | 49.1 ± 0.01 µM | 0.1257 ± 0.00052 µM |  |  |  |  |  |  |
| Clc1ccc(-c2nc(Nc3cc(Br)cc4cc(-c5cccc(Cl)c5)oc34)c3cc(Br)ccc3n2)cc1 [Compound 10i, 6-Bromo-N-(5-bromo-2–(3-chlorophenyl)benzofuran-7-yl)-2–(4-chlorophenyl)quinazolin-4-amine] |  | 75.1 ± 5.25 µM | 68.2 ± 0.02 µM | 86.6 ± 0.16 µM | 33.5 ± 0.1 µM | 0.0902 ± 0.00034 µM |  |  |  |  |  |  |
| FC(F)(F)Oc1ccc(-c2cc3cc(Br)cc(Nc4nc(-c5ccc(Cl)cc5)nc5ccc(Br)cc45)c3o2)cc1 [Compound 10j, 6-Bromo-N-(5-bromo-2–(4-(trifluoromethoxy)phenyl)benzofuran-7-yl)-2–(4-chlorophenyl) quinazoline-4-amine] |  | 28.1 ± 0.79 µM | > 100 µM | 47.4 ± 0.07 µM | 18.4 ± 0.07 µM | 0.0615 ± 1e-05 µM |  |  | induce apoptosis through activation of caspase-3 | induced apoptosis |  |  |
| COc1cc2ncnc(Nc3ccc(F)c(Cl)c3)c2cc1OCCCN1CCOCC1 [Gefitinib, reference compound] |  | 98.8 ± 0.56 µM |  | 51.3 ± 0.17 µM |  |  |  |  |  |  | 5.01 µM | 5 ± 0.04 µM |
